The text below walks through data of PMC8944544, “IPA-3: An Inhibitor of Diadenylate Cyclase of Streptococcus suis with Potent Antimicrobial Activity” (Antibiotics, 2022).

In experiment [1] the target is T1, diadenylate cyclase of Streptococcus suis (ssDacA) (Streptococcus suis, UniProt A0A0H3N0L3).
T1 construct: gene dacA; C-terminal catalytic domain (residues 99 to 283), His-tagged, from S. suis SC19
The experiment in a line: Kinase-Glo ATP consumption assay with purified enzyme ([…] ssDacA); confirmed by HPLC of c-di-AMP. It counts as biochemical.

For experiment [2], the target named is T1, diadenylate cyclase of Streptococcus suis (ssDacA). The experiment in a line: HPLC quantification of product formed by purified enzyme. It counts as biochemical.

T1 sequence (A0A0H3N0L3 entry or part of it): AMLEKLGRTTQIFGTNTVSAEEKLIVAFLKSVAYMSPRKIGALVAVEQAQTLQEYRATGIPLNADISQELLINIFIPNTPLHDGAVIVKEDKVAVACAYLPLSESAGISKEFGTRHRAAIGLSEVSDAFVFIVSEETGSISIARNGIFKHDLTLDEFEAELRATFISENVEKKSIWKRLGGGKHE

Compound `Oc1ccc2ccccc2c1SSc1c(O)ccc2ccccc12` [IPA-3, 2,2′-dihydroxy-1,1′-dinapthyldisulfide] had a concentration for half-maximal inhibition (IC50) in experiment [1] of 38.2 µM.
With `Nc1ncnc2c1ncn2[C@@H]1O[C@@H]2COP(=O)(O)O[C@H]3[C@@H](O)[C@H](n4cnc5c(N)ncnc54)O[C@@H]3COP(=O)(O)O[C@H]2[C@H]1O` [c-di-AMP], the “HPLC quantification of product formed by purified enzyme” value in experiment [2] was “the catalytic product c-di-AMP in the reaction was detected in the presence and absence of IPA-3 in vitro”.
